Results on 21 compounds are retold here after patent US12110293B2, “Substituted triazolo quinoxaline derivatives” (GRÜNENTHAL GMBH, priority 2018, dated 2024).

Some results are limits rather than exact numbers.

This assay concerns the target T1, glucocorticoid receptor (Homo sapiens, UniProt P04150).
T1 construct: expressed in transfected cells
T1 sequence (P04150 524-758 limits assumed): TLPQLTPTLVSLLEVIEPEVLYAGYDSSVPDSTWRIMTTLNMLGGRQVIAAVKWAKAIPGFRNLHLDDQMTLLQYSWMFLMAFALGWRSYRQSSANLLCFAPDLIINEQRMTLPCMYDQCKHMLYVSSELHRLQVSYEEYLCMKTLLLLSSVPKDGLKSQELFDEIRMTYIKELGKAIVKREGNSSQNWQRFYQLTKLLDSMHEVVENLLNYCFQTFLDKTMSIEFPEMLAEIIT
The assay can be described thus: Agonistic mode of action on the glucocorticoid receptor (CHO-Gal4/GR luciferase reporter cell line). Format: cell-based. The note with it: range class observed in the agonistic assay or the antagonistic assay (CHO-Gal4/GR reporter cells); table does not say which mode applies per example. The text has this: Potential selective glucocorticoid receptor modulators of this intervention can be tested for modulation of the activity of the glucocorticoid receptor using cell-based assays. These assays involve a Chinese hamster ovary (CHO) cell line which contains fragments of the glucocorticoid receptor as well as fusion proteins. The glucocorticoid receptor fragments used are capable of binding the ligand (e.g. beclomethasone) to identify molecules that compete for binding with glucocorticoid receptor ligands. In more detail, the glucocorticoid receptor ligand binding domain is 25 fused to the DNA binding domain (DBD) of the transcriptionfactor GAL4 (GAL4 DBD-GR) and is stably integrated into a CHO cell line containing a GAL4-UAS-Luciferase reporter construct. […] After cell lysis the luminescence that is produced by luciferase after addition of the substrate is detected and EC50 or IC50 values can be calculated. Engagement of molecules which induce gene expression via glucocortocoid receptor binding to the DNA leads to expression of the luciferase gene under the control of the fusion protein GAL4 DBD-GR and therefore to a dose-dependent increase of the luminescence signal. Binding of molecules which repress beclomethasone-induced gene expression of the luciferase gene under the control of the fusion protein GAL4 DBD-GR leads to a dose-dependent reduction of the luminescence signal.
Biological Assays Agonistic Mode of Action on the Glucocorticoid Receptor
The reporter cell line CHO-Gal4/GR consisted of a Chinese hamster ovary (CHO) cell line (Leibniz Institute DSMZ—German Collection of Microorganisms and Cell CuItures GmbH: ACC-110) containing a firefly luciferase gene under the control of the GR ligand binding domain fused to the DNA binding domain (DBD) of GAL4 (GAL4 DBD-GR) stably integrated into CHO cells. This cell line was established by stable transfection of CHO cells with a GAL4-UAS-Luciferase reporter construct. In a subsequent step the ligand binding domain of the GR cloned into pIRES2-EGFP-GAL4 containing the DNA binding domain of GAL4 from pFA-AT2 was transfected. This fusion construct activated firefly luciferase expression under the control of a multimerized GAL4 upstream activation sequence (UAS). The signal of the emitted luminescence was recorded by the FLIPR^TETRA. This allowed for specific detection of ligand-induced activation of the GR and therefore for the identification of compounds with agonistic properties. The GAL4/UAS reporter was premixed with a vector that constitutively expressed Renilla luciferase, which served as an internal positive control for transfection efficiency.
The complete culture medium for the assay was: • DMEM F-12 (1:1) MIXTURE (LONZA cat. N°: BE04-687F/U1) 500 mL • 5 mL of 100 mM Sodium Pyruvate (LONZA cat. N°: BE12-115E) • 25 mL of 7.5% Sodium Bicarbonate (LONZA cat. N° BE17-613E) • 6.5 mL of 1 M Hepes (LONZA cat. N°: BE17-737E) • 5 mL of 100× Penicillin/Streptomycin (LONZA cat. N° DE17-602E) • 50 mL of Fetal Bovine Serum (Euroclone cat. N° ECS 0180L) • 0.25 mL of 10 mg/mL Puromycin (InvivoGen cat.: ant-pr-1) • 0.5 mL of 100 mg/mL Zeocin (InvivoGen cat.: ant-zn-1)
Cryo-preserved CHO-Gal4/GR cells were suspended in complete medium and 5000 cells/25 μl/well were seeded into the wells of 384-well polystyrene assay plates (Thermo Scientific, cat. #4332) and cultured at 37° C., 5% CO2 and 95% humidity. After 24 hours growth medium was carefully removed and replaced by 30 μl Opti-MEM (GIBCO, cat. #31985062) as assay buffer. To test the compounds an 8-point half-log compound dilution curve was generated in 100% DMSO starting from a 2 mM stock and compounds were then diluted 1:50 in Opti-MEM. 10 μl of compounds were then added to the wells containing 30 μl Opti-MEM resulting in a final assay concentration range from 10 μM to 0.003 μM in 0.5% DMSO. Compounds were tested at 8 concentrations in quadruplicate data points.
(A reporter such as luciferase makes a cellular process visible.)

Compound `CC#Cc1c[nH]c2c(-c3c(F)cc4c(c3C)-n3c(CCOC)nnc3C(C)(C)N4)cc(F)cc12` [Example 79, 7-fluoro-8-(5-fluoro-3-(prop-1-yn-1-yl)-1H-indol-7-yl)-1-(2-methoxyethyl)-4,4,9-trimethyl-4,5-dihydro-[1,2,4]triazolo[4,3-a]quinoxaline] gave an IC50 or EC50 (agonist or antagonist mode not specified) of 1000 to 15000 nM.

Take `Cc1nnc2n1-c1c(cc(Cl)c(-c3cc(F)cc4c3cnn4CC(F)F)c1F)NC2(C)C` [Example 508, 7-Chloro-8-[1-(2,2-difluoro-ethyl)-6-fluoro-1H-indazol-4-yl]-9-fluoro-1,4,4-trimethyl-5H-[1,2,4] triazolo[4,3-a]quinoxaline]: the IC50 or EC50 (agonist or antagonist mode not specified) is 100 to 1000 nM. As for `Cc1c(-c2cc(F)cc3c2ccn3S(C)(=O)=O)c(Cl)cc2c1-n1c(C)nnc1C(C)(C)N2` [Example 333, 7-Chloro-8-(6-fluoro-1-methylsulfonyl-1H-indol-4-yl)-1,4,4,9-tetramethyl-5H-[1,2,4] triazolo[4,3-a]quinoxaline], the figure is less than 100 nM; as for `Cc1c(-c2cccc3cc[nH]c23)c(F)cc2c1-n1c(C)nnc1C(C)(C)N2` [Example 25, 7-fluoro-8-(1H-indol-7-yl)-1,4,4,9-tetramethyl-4,5-dihydro-[1,2,4]triazolo[4,3-a]quinoxaline], 100 to 1000 nM; as for `CCS(=O)(=O)n1ccc2c(-c3c(F)cc4c(c3F)-n3c(C)nnc3C(C)(C)N4)cc(F)cc21` [Example 18, 8-(1-(ethylsulfonyl)-6-fluoro-1H-indol-4-yl)-7,9-difluoro-1,4,4-trimethyl-4,5-dihydro-[1,2,4]triazolo[4,3-a]quinoxaline], 100 to 1000 nM. As for `Cc1nnc2n1-c1c(cc(F)c(-c3cc(C(F)(F)F)cc4[nH]ccc34)c1C(F)(F)F)NC2(C)C` [Example 473, 7-Fluoro-1,4,4-trimethyl-9-(trifluoromethyl)-8-[6-(trifluoromethyl)-1H-indol-4-yl]-5H-[1,2,4]triazolo[4,3-a] quinoxaline], the figure is 100 to 1000 nM; as for `Cc1c[nH]c2c(-c3c(Cl)cc4c(c3F)-n3c(C)nnc3C(C)(C)N4)cc(F)cc12` [Example 290, 7-Chloro-9-fluoro-8-(5-fluoro-3-methyl-1H-indol-7-yl)-1,4,4-trimethyl-5H-[1,2,4]triazolo[4,3-a]quinoxaline], 100 to 1000 nM. Next, `COc1cc2c(c(C(F)(F)F)c1-c1cc(F)cc3c1ccn3S(C)(=O)=O)-n1c(C)nnc1C(C)(C)N2` [Example 329, 8-(6-Fluoro-1-methylsulfonyl-1H-indol-4-yl)-7-methoxy-1,4,4-trimethyl-9-(trifluoromethyl)-5H-[1,2,4]triazolo[4,3-a]quinoxaline]: 100 to 1000 nM; `COc1c(-c2cccc3[nH]ccc23)c(F)cc2c1-n1c(C)nnc1C(C)(C)N2` [Example 286, 7-Fluoro-8-(1H-indol-4-yl)-9-methoxy-1,4,4-trimethyl-5H-[1,2,4]triazolo[4,3-a]quinoxaline]: 100 to 1000 nM. `Cc1c[nH]c2c(-c3c(Cl)cc4c(c3F)-n3c(C)nnc3C(C)(C)N4)cccc12` [Example 272, 7-Chloro-9-fluoro-1,4,4-trimethyl-8-(3-methyl-1H-indol-7-yl)-5H-[1,2,4]triazolo[4,3-a]quinoxaline] yielded an IC50 or EC50 (agonist or antagonist mode not specified) of 100 to 1000 nM. Next, `Cc1nnc2n1-c1c(cc(F)c(-c3cc(F)cc4c3ccn4C)c1C(F)F)NC2(C)C` [Example 521, 9-(Difluoro-methyl)-7-fluoro-8-(6-fluoro-1-methyl-1H-indol-4-yl)-1,4,4-trimethyl-5H-[1,2,4]triazolo [4,3-a]quinoxaline]: less than 100 nM. `COCCn1ccc2c(-c3c(OC)cc4c(c3F)-n3c(C)nnc3C(C)(C)N4)cccc21` [Example 288, 9-Fluoro-7-methoxy-8-[1-(2-methoxy-ethyl)-1H-indol-4-yl]-1,4,4-trimethyl-5H-[1,2,4]triazolo[4,3-a]quinoxaline] registered an IC50 or EC50 (agonist or antagonist mode not specified) of 1000 to 15000 nM. As for `Cc1cc2c(c(F)c1-c1cccc3c(C)c[nH]c13)-n1c(C)nnc1C(C)(C)N2` [Example 359, 9-Fluoro-1,4,4,7-tetramethyl-8-(3-methyl-1H-indol-7-yl)-5H-[1,2,4]triazolo[4,3-a]quinoxaline], the figure is 100 to 1000 nM. On to `Cc1c(-c2cc(C#N)cc3[nH]ccc23)c(F)cc2c1-n1c(C)nnc1C(C)(C)N2` [Example 494, 4-(7-Fluoro-1,4,4,9-tetramethyl-5H-[1,2,4]triazolo[4,3-a]quinoxalin-8-yl)-1H-indole-6-carbonitrile], for which the IC50 or EC50 (agonist or antagonist mode not specified) fell in the range of 100 to 1000 nM. With `Cc1nnc2n1-c1c(cc(F)c(-c3cccc4c3ccn4CC(F)F)c1C(F)F)NC2(C)C` [Example 398, 8-[1-(2,2-Difluoro-ethyl)-1H-indol-4-yl]-9-(difluoro-methyl)-7-fluoro-1,4,4-trimethyl-5H-[1,2,4]triazolo [4,3-a]quinoxaline], the IC50 or EC50 (agonist or antagonist mode not specified) was in the range of 100 to 1000 nM. As for `Cc1c(-c2cccc3c2ccn3C)c(F)cc2c1-n1c(C)nnc1C(C)(C)N2` [Example 486, 7-Fluoro-1,4,4,9-tetramethyl-8-(1-methyl-1H-indol-4-yl)-5H-[1,2,4]triazolo[4,3-a]quinoxaline], the figure is less than 100 nM; as for `COCCn1ccc2c(-c3c(OC(F)F)cc4c(c3F)-n3c(C)nnc3C(C)(C)N4)cc(F)cc21` [Example 394, 7-(Difluoro-methoxy)-9-fluoro-8-[6-fluoro-1-(2-methoxy-ethyl)-1H-indol-4-yl]-1,4,4-trimethyl-5H-[1,2,4]triazolo[4,3-a]quinoxaline], 1000 to 15000 nM.

Compound `COc1c(-c2cccc3c2cnn3S(C)(=O)=O)c(F)cc2c1-n1c(C)nnc1C(C)(C)N2` [Example 342, 7-Fluoro-9-methoxy-1,4,4-trimethyl-8-(1-methylsulfonyl-1H-indazol-4-yl)-5H-[1,2,4]triazolo[4,3-a] quinoxaline] returned an IC50 or EC50 (agonist or antagonist mode not specified) of 1000 to 15000 nM.

`Cc1nnc2n1-c1c(cc(F)c(-c3cc(F)cc4cc[nH]c34)c1C(F)(F)F)NC2(C)C` [Example 516, 7-Fluoro-8-(5-fluoro-1H-indol-7-yl)-1,4,4-trimethyl-9-(trifluoro-methyl)-5H-[1,2,4]triazolo[4,3-a] quinoxaline] had an IC50 or EC50 (agonist or antagonist mode not specified) of 100 to 1000 nM. As for `Cc1c(-c2cc(F)cc3c(C4CC4)c[nH]c23)c(Cl)cc2c1-n1c(C)nnc1C(C)(C)N2` [Example 485, 7-Chloro-8-(3-cyclopropyl-5-fluoro-1H-indol-7-yl)-1,4,4,9-tetramethyl-5H-[1,2,4]triazolo [4,3-a]quinoxaline], the figure is less than 100 nM. As for `Cc1nnc2n1-c1c(cc(F)c(-c3cccc4c3cc(C(F)(F)F)n4S(C)(=O)=O)c1F)NC2(C)C` [Example 271, 7,9-Difluoro-1,4,4-trimethyl-8-[1-methylsulfonyl-2-(trifluoromethyl)-1H-indol-4-yl]-5H-[1,2,4]triazolo [4,3-a]quinoxaline], the figure is 1000 to 15000 nM.
